The source of these data is US20110201497A1, “Composition Comprising A Pesticide and an Alkoxylate of Iso-Heptadecylamine” (BASF SE, priority 2010, published 2011).

One experiment concerns soybean. The experiment is described as follows: Greenhouse test, herbicidal activity of glyphosate SL with amine alkoxylate against soybean. As to conditions: scored vs untreated control. It is filed as in vivo, soybean (cv. Oxford). The method, then:
(§1) To carry out greenhouse tests, the winter wheats (cv. Cubus) or soybeans (cv. Oxford) were sown or potted in loamy sand at a sowing depth of 1-2 cm. As soon as the plants had reached a height of 10 to 25 cm (i.e. approx. 10 to 21 days after sowing), the spray mixtures were applied to the plants in a spray cabinet.
(§2) A concentrated formulation comprising glyphosate isoproylammonium dissolved in water and amine alkoxylate of example 2 were diluted with fully demineralized water and were applied at a water application rate of 375 l/ha ([…]). The temperatures during the experimental period, which lasted for 3 to 4 weeks, were between 18 and 35° C. During this time, the test plants received optimal irrigation, the nutrient supply being effected via the irrigation water.
(§3) The herbicidal activity was assessed by scoring the treated plants in comparison with the untreated control plants (table 1). The assessment scale goes from 0% to 100% activity. 100% activity means complete dying at least of the aerial plant parts. In contrast, 0% activity means that no differences were observed between treated and untreated plants. The results in table 1 and 2 confirm the increased activity of the active substance by addition of the amine alkoxylate.

The subject of another experiment is winter wheat. The experiment is described as follows: Greenhouse test, herbicidal activity of glyphosate SL with amine alkoxylate against winter wheat. It is filed as in vivo, winter wheat (cv. Cubus). As to conditions: scored vs untreated control. The method, then: as §1, §2, §3
[1] abbreviates: glyphosate 140 g/ha, amine alkoxylate (where present) 300 g/ha, 375 l/ha water.
Where [2] appears, read: glyphosate 280 g/ha, with amine alkoxylate where named.

Take `O=C(O)CNCP(=O)(O)O` [glyphosate]: the “Activity [%] after 14 days” value in the experiment on soybean (setting [1]) was found to be 29%; with soybean (setting [2]), 36%; in the experiment with winter wheat (setting [1]) it was 64%; with winter wheat (setting [2]) it was 71%. Further, the “Activity [%] after 21 days” value with soybean (setting [1]) worked out at 38%; with soybean (setting [2]), 40%; with winter wheat (setting [1]), 73%; with winter wheat (setting [2]), 81%. Besides, the “Activity [%] after 28 days” value in the experiment with soybean (setting [1]) stood at 38%; with soybean (setting [2]) it was 40%; in the experiment on winter wheat (setting [1]), 73%; in the experiment with winter wheat (setting [2]), 81%.
